“Also recorded” adds a separate entry of the source.
Assays:
[1] = system: adult male wild-type C57BL/6J mice; test: Protection against geographic atrophy after intravitreal ferric ammonium citrate in mice fed D-DHA; assay type: in vivo; settings: for protection against geographic atrophy: intravitreal ferric ammonium citrate
Source text: In this example, two cohorts of adult male wild-type C57BL/6J mice (Jackson Labs) were used. Both cohorts were fed identical feed containing 0.25% or 0.5% D-DHA or matching amounts of DHA as controls. After 4 weeks, the mice were given an intravitreal injection of 1 microliter of 0.5 millimolar ferric ammonium citrate diluted in 0.9% saline (test) or 1 microliter of 0.9% saline (control). Mice were then continued on their respective diets for 4 weeks after injection in order to evaluate whether D-DHA could protect against geographic atrophy which is related to AMD.

[2] = Predicted steady-state D-DHA substitution and plasma decline without dosing in patients, calculated from Table 2 / FIG. 1; design: species or system human; settings: for D-DHA substitution rate at steady-state (% of total DHA): DHA in human diet 130 mg/day
Source text: In contrast to controlled experimental diets, naturally occurring DHA is consumed by patients treated with D-DHA which can dilute the relative percentage of administered D-DHA absorbed with the total DHA pool and its final concentration at steady state in blood and eventually in the target tissue such as retina. The data and standard curves referred to above allow for the determination of retinal steady-state active D-DHA concentrations with reasonable accuracy by calculating the D-DHA/total DHA ratio in plasma and/or red blood cells. Table 4 exemplifies this by using a mean daily dietary intake of about 130 mg of DHA per day (which represents the 90th percentile of the mean usual DHA intake by males >51 years of age in the US.
In each case, the first order kinetics evidence that a dose of 250 mg dose of D-DHA will provide for a steady-state ratio of active D-DHA based on the total DHA concentration present, as set forth in Table 4. Extrapolating backwards from the case in Table 4, a dose of at least 130 mg/day of D-DHA should provide a 1:1 ratio of active D-DHA to DHA. That ratio has been shown above to be therapeutic. And a dose of 250 mg of higher should provide a ratio of 1.9:1 or higher which provides a margin for non-compliance as decribed herein above.
Tables 5, 6, and 7 are based on Table 2 and describe the time it takes for plasma D-DHA levels to fall below 50% or below 20% with 5 different daily doses of D-DHA in (i) patients in the 90th percentile of daily intake consuming up to 130 mg DHA (Table 5), (ii) those in the 95th percentile with a daily intake of up to 180 mg DHA (Table 6), and (iii) an example of a patient consuming more than one meal of oily fish per week with up to 260 mg daily DHA intake.

geographic atrophy = test: Proposed evaluation of geographic atrophy progression in patients versus placebo (safflower oil); assay type: in vivo, human
Method: Based on the above experiment, the following provides a proposed evaluation in reduction in the rate of macular degeneration progression in a cohort of patients treated with deuterated docosahexaenoic acid ethyl ester, as compared to a cohort of test patients treated with placebo. Specifically, the treated cohort is administered 250 mg/day of deuterated docosahexaenoic acid ethyl ester or 250 mg/day of safflower oil. The patients are maintained on this dosing regimen throughout the clinical study. Periodic measurements of further geographic atrophy development are obtained.
Dosing is continued for 6 or 12, or 18 or 24 months. At that time, the average extent of geographic atrophy progression is measured for each cohort. The efficacy of the treatment protocol is evaluated by comparing the extent of geographic atrophy progression in a treated population against a placebo population. […]

[3] = Daily D-DHA Dose 250 mg, Background DHA/Day 130 mg (90th percentile, US males)
[4] = Daily D-DHA Dose 250 mg, Background DHA/Day 180 mg (95th percentile, US males)
[5] = Daily D-DHA Dose 250 mg, Background DHA/Day 260 mg (>1 meal of oily fish per week)
[6] = Daily D-DHA Dose 500 mg, Background DHA/Day 130 mg (90th percentile, US males)
[7] = Daily D-DHA Dose 500 mg, Background DHA/Day 180 mg (95th percentile, US males)
[8] = Daily D-DHA Dose 500 mg, Background DHA/Day 260 mg (>1 meal of oily fish per week)
[9] = Daily D-DHA Dose 750 mg, Background DHA/Day 130 mg (90th percentile, US males)
[10] = Daily D-DHA Dose 750 mg, Background DHA/Day 180 mg (95th percentile, US males)
[11] = Daily D-DHA Dose 750 mg, Background DHA/Day 260 mg (>1 meal of oily fish per week)
[12] = Daily D-DHA Dose 1000 mg, Background DHA/Day 130 mg (90th percentile, US males)
[13] = Daily D-DHA Dose 1000 mg, Background DHA/Day 180 mg (95th percentile, US males)
[14] = Daily D-DHA Dose 1000 mg, Background DHA/Day 260 mg (>1 meal of oily fish per week)
[15] = Daily D-DHA Dose 1250 mg, Background DHA/Day 130 mg (90th percentile, US males)
[16] = Daily D-DHA Dose 1250 mg, Background DHA/Day 180 mg (95th percentile, US males)
[17] = Daily D-DHA Dose 1250 mg, Background DHA/Day 260 mg (>1 meal of oily fish per week)

Compound: [2H]C([2H])(/C=C\CC)/C=C\C([2H])([2H])/C=C\C([2H])([2H])/C=C\C([2H])([2H])/C=C\C([2H])([2H])/C=C\CCC(=O)O [D-DHA, D-10-docosahexaenoic acid]
- protection against geographic atrophy ([1]; concentration of D-DHA at least 50% of the total DHA in the retina, feed 0.25% or 0.5% D-DHA): fully protected against geographic atrophy
- protection against geographic atrophy ([1]; lower concentrations of D-DHA to DHA (below 50% of total DHA in the retina)): protection was achieved but at reduced rates
- protection / reduction in lipid peroxidation ([1]; ratio of about 1:4 of D-DHA to DHA): the protection is accorded; also recorded: sufficient to provide for therapeutic reduction in lipid peroxidation
- protection / reduction in lipid peroxidation ([1]; ratio of at least about 1:1 D-DHA to DHA): protect is maximal; also recorded: near maximal results are obtained
- D-DHA Substitution Rate [2, 3]: ~66%
- D-DHA/DHA Ratio [2, 3]: 1.92 to 1
- Time to reach 20% in Plasma (0.2:1 D-DHA to DHA Ratio) w/o taking oral D-DHA [2, 3]: ≤ 77 days
- Time to reach ≤50% in Plasma (1:1 D-DHA to DHA Ratio) w/o taking oral D-DHA [2, 3]: ≤ 22 days
- D-DHA Substitution Rate [2, 4]: ~58%
- Days to reach ≤50% in Plasma (1:1 D-DHA to DHA Ratio) w/o taking oral D-DHA [2, 4]: ≤ 11 days
- Time to reach 20% in Plasma (0.2:1 D-DHA to DHA Ratio) w/o taking oral D-DHA [2, 4]: ≤ 66 days
- D-DHA Substitution Rate [2, 5]: ~49%
- Time to reach 20% in Plasma (0.2:1 D-DHA to DHA Ratio) w/o taking oral D-DHA [2, 5]: ≤ 29 days
- D-DHA Substitution Rate [2, 6]: ~79%
- Time to reach 20% in Plasma (0.2:1 D-DHA to DHA Ratio) w/o taking oral D-DHA [2, 6]: ≤ 46 days
- Time to reach ≤50% in Plasma (1:1 D-DHA to DHA Ratio) w/o taking oral D-DHA [2, 6]: ≤ 6 days
- D-DHA Substitution Rate [2, 7]: ~74%
- Days to reach ≤50% in Plasma (1:1 D-DHA to DHA Ratio) w/o taking oral D-DHA [2, 7]: ≤ 35 days
- Time to reach 20% in Plasma (0.2:1 D-DHA to DHA Ratio) w/o taking oral D-DHA [2, 7]: ≤ 90 days
- D-DHA Substitution Rate [2, 8]: ~66%
- Days to reach ≤50% in Plasma (1:1 D-DHA to DHA Ratio) w/o taking oral D-DHA [2, 8]: ≤ 8 days
- Time to reach 20% in Plasma (0.2:1 D-DHA to DHA Ratio) w/o taking oral D-DHA [2, 8]: ≤ 63 days
- D-DHA Substitution Rate [2, 9]: ~85%
- Time to reach 20% in Plasma (0.2:1 D-DHA to DHA Ratio) w/o taking oral D-DHA [2, 9]: ≤ 101 days
- Time to reach ≤50% in Plasma (1:1 D-DHA to DHA Ratio) w/o taking oral D-DHA [2, 9]: ≤ 60 days
- D-DHA Substitution Rate [2, 10]: ~81%
- Days to reach ≤50% in Plasma (1:1 D-DHA to DHA Ratio) w/o taking oral D-DHA [2, 10]: ≤ 49 days
- Time to reach 20% in Plasma (0.2:1 D-DHA to DHA Ratio) w/o taking oral D-DHA [2, 10]: ≤ 104 days
- D-DHA Substitution Rate [2, 11]: ~74%
- Days to reach ≤50% in Plasma (1:1 D-DHA to DHA Ratio) w/o taking oral D-DHA [2, 11]: ≤ 26 days
- Time to reach 20% in Plasma (0.2:1 D-DHA to DHA Ratio) w/o taking oral D-DHA [2, 11]: ≤ 81 days
- D-DHA Substitution Rate [2, 12]: ~88%
- Time to reach 20% in Plasma (0.2:1 D-DHA to DHA Ratio) w/o taking oral D-DHA [2, 12]: ≤ 125 days
- Time to reach ≤50% in Plasma (1:1 D-DHA to DHA Ratio) w/o taking oral D-DHA [2, 12]: ≤ 70 days
- D-DHA Substitution Rate [2, 13]: ~85%
- Days to reach ≤50% in Plasma (1:1 D-DHA to DHA Ratio) w/o taking oral D-DHA [2, 13]: ≤ 59 days
- Time to reach 20% in Plasma (0.2:1 D-DHA to DHA Ratio) w/o taking oral D-DHA [2, 13]: ≤ 114 days
- D-DHA Substitution Rate [2, 14]: ~79%
- Days to reach ≤50% in Plasma (1:1 D-DHA to DHA Ratio) w/o taking oral D-DHA [2, 14]: ≤ 38 days
- Time to reach 20% in Plasma (0.2:1 D-DHA to DHA Ratio) w/o taking oral D-DHA [2, 14]: ≤ 93 days
- D-DHA Substitution Rate [2, 15]: ~91%
- Time to reach 20% in Plasma (0.2:1 D-DHA to DHA Ratio) w/o taking oral D-DHA [2, 15]: ≤ 132 days
- Time to reach ≤50% in Plasma (1:1 D-DHA to DHA Ratio) w/o taking oral D-DHA [2, 15]: ≤ 77 days
- D-DHA Substitution Rate [2, 16]: ~87%
- Days to reach ≤50% in Plasma (1:1 D-DHA to DHA Ratio) w/o taking oral D-DHA [2, 16]: ≤ 67 days
- Time to reach 20% in Plasma (0.2:1 D-DHA to DHA Ratio) w/o taking oral D-DHA [2, 16]: ≤ 121 days
- D-DHA Substitution Rate [2, 17]: ~83%
- Days to reach ≤50% in Plasma (1:1 D-DHA to DHA Ratio) w/o taking oral D-DHA [2, 17]: ≤ 47 days
- Time to reach 20% in Plasma (0.2:1 D-DHA to DHA Ratio) w/o taking oral D-DHA [2, 17]: ≤ 102 days
- D-DHA substitution rate at steady-state (% of total DHA) ([2]; Fixed daily D-DHA dose 250 mg): 66%
- D-DHA substitution rate at steady-state (% of total DHA) ([2]; Fixed daily D-DHA dose 500 mg): 79%
- D-DHA substitution rate at steady-state (% of total DHA) ([2]; Fixed daily D-DHA dose 1000 mg): 88%
- time to reach steady state concentrations of active D-DHA after start of therapy ([2]; plasma, patient): about 14 days
- time to reach steady state concentrations of active D-DHA after start of therapy ([2]; red blood cell, patient): about 45 days
- time to reach steady state concentration of active D-DHA after start of therapy ([2]; skeletal muscle tissue, patient): about 11 weeks
- percent reduction in geographic atrophy [(F/E)×100] (geographic atrophy; individual patient treated with 1,000 mg of D-DHA versus placebo cohort, 6, 12, 18 or 24 months): positive percent reduction in geographic atrophy that is statistically significant

Compound: [2H]C([2H])(/C=C\CC)/C=C\C([2H])([2H])/C=C\C([2H])([2H])/C=C\C([2H])([2H])/C=C\C([2H])([2H])/C=C\CCC(=O)OCC [deuterated docosahexaenoic acid ethyl ester]
- reduction in the rate of disease progression (geographic atrophy progression) (geographic atrophy; cohort of patients, 250 mg/day, 6 or 12 or 18 or 24 months, versus placebo (safflower oil)): statistically significant reduction in the rate of disease progression
- percent reduction in geographic atrophy area [(C/B)×100] (geographic atrophy; cohort of treated patients versus placebo cohort, 6, 12, 18 or 24 months post start of therapy): positive percent reduction in geographic atrophy area that is statistically significant
